Source: article PMC4961418, “A Selective Irreversible Inhibitor of Furin Does Not Prevent Pseudomonas Aeruginosa Exotoxin A-Induced Airway Epithelial Cytotoxicity” (PLoS ONE, 2016)
Side chains are listed from the residue outwards. Peptide text beside a SMILES is read from it. * marks the point of attachment. Biotin = O=C1N[C@H]2[C@H](CS[C@H]2CCCCC(=O)*)N1; X1 = N=C(N)NCCCC(N*)P(=O)(Oc1ccccc1)Oc1ccccc1; Palmitoyl = CCCCCCCCCCCCCCCC(=O)*; Ahx = NCCCCCC(=O)O

How the values were obtained:
trypsin = assay: Fluorogenic protease activity assay, trypsin; type: biochemical, human; details: 10 μM inhibitor, Z-Gly-Gly-Arg-NH2Mec 50 μM, N = 3
Source text: (§1) Recombinant human enzymes were sourced as follows: furin and matriptase (R&D Systems); prostasin (Sino Biological); trypsin and chymotrypsin (Sigma-Aldrich); factor Xa and neutrophil elastase (Merck Millipore) and proteinase-3 and cathepsin G (Elastin Products, Missouri). Fluorogenic substrates were sourced as follows: p-Glu-Arg-Thr-Lys-Arg-NH2Mec and Boc-Gln-Ala-Arg-NH2Mec (R&D Systems); Boc-Ile-Glu-Gly-Arg-NH2Mec (Bachem); Z-Gly-Gly-Arg-NH2Mec, MeOSuc-Ala-Ala-Pro-Val-NH2Mec and Suc-Ala-Ala-Pro-Phe-NH2Mec (Sigma-Aldrich). All chemicals and reagents for the synthesis of QUB-F1 were supplied by Sigma-Aldrich unless otherwise indicated. Fmoc-Lys(Boc)-SASRIN resin was sourced from Bachem. Fmoc-protected amino acids and HCTU were supplied by Merck Millipore.
(§2) Recombinant protease activities were assessed using the cognate fluorogenic substrates (final concentration 50 μM) as follows: trypsin (Z-Gly-Gly-Arg-NH2Mec), prostasin and matriptase (Boc-Gln-Ala-Arg-NH2Mec), factor Xa (Boc-Ile-Glu-Gly-Arg-NH2Mec), neutrophil elastase and proteinase 3 (MeO-Suc-Ala-Ala-Pro-Val-NH2Mec), chymotrypsin and cathepsin G (Suc-Ala-Ala-Pro-Phe-NH2Mec). The rate of substrate hydrolysis in the presence or absence of furin inhibitors was assessed by continuous recording at λex 360 nm, λem 480 nm, over a period of 60 minutes using a FLUOstar Optima microplate reader (BMG Labtech). […]

prostasin = biological target: T1, prostasin (Homo sapiens, UniProt Q16651); assay: Fluorogenic protease activity assay, prostasin; type: biochemical; details: 10 μM inhibitor, Boc-Gln-Ala-Arg-NH2Mec 50 μM, N = 3
T1 construct: purchased Sino Biological
Source text: as §1, §2

factor Xa = biological target: T2, factor Xa (Homo sapiens, UniProt P00742); assay: Fluorogenic protease activity assay, factor Xa; type: biochemical; details: 10 μM inhibitor, Boc-Ile-Glu-Gly-Arg-NH2Mec 50 μM, N = 3
T2 construct: factor Xa and neutrophil elastase (Merck Millipore); purchased Merck Millipore
Source text: as §1, §2

neutrophil elastase = biological target: T3, neutrophil elastase (Homo sapiens, UniProt P08246); assay: Fluorogenic protease activity assay, neutrophil elastase; type: biochemical; details: 10 μM inhibitor, MeO-Suc-Ala-Ala-Pro-Val-NH2Mec 50 μM, N = 3
T3 construct: purchased Merck Millipore
T3 sequence (P08246 30-267): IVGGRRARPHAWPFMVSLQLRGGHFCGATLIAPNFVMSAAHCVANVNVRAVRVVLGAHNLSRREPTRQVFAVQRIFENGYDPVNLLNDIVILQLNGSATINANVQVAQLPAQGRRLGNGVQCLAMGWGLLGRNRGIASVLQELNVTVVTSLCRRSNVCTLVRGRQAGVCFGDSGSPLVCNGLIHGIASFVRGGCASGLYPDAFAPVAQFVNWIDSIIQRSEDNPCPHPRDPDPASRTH
Source text: as §1, §2

proteinase 3 = biological target: T4, proteinase 3 (Homo sapiens, UniProt P24158); assay: Fluorogenic protease activity assay, proteinase 3; type: biochemical; details: 10 μM inhibitor, MeO-Suc-Ala-Ala-Pro-Val-NH2Mec 50 μM, N = 3
T4 construct: purchased Elastin Products, Missouri
T4 sequence (P24158 28-256): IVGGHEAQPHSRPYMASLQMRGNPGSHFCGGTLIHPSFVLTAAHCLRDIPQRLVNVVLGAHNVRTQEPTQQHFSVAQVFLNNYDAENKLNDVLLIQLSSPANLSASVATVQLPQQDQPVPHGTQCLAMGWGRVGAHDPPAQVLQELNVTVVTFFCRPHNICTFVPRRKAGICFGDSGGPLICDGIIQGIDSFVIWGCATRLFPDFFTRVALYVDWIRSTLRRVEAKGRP
Source text: as §1, §2

[1] = system: cell surface furin-like activity (CuFi-1 epithelial cells); assay: Epithelial cell surface furin-like activity assay; type: cell-based, human; details: 10 μM inhibitor, pERTKR substrate 50 μM applied to cell cultures
Experimental: The CuFi-1 cell line was derived from human airway epithelium of a CF patient (F508del/F508del) transformed with a reverse transcriptase component of telomerase, hTERT and human papillomavirus type 16 E6 and E7 genes. Cells were grown as submerged cultures using bronchial epithelial growth medium (BEBM including a supplement pack) containing: epidermal growth factor, hydrocortisone, bovine pituitary extract, transferrin, bovine insulin, triiodothyronine, epinephrine, retinoic acid, penicillin-streptomycin (0.025 μg/ml), gentamycin ([…]) and amphotericin (25 μg/ml).
Cell culture media was removed from CuFi-1 epithelial cells grown in 96 well microtitre plates (Thermo Scientific Sterilin; clear bottom, black walled) and replaced with PBS /+ inhibitor compounds (furin I or QUB-F1). The furin fluorogenic substrate (pERTKR -NH2Mec) was then applied directly to the cell cultures to give a final concentration of 50 μM. Cell surface proteolytic activity was measured by monitoring the formation of–NH2Mec at λex 360 nm and λem 480 nm using a 5 mm orbital scan every 60 s over a 1 h period (FLUOstar Optima microplate reader; BMG Labtech).
Fig 4 Effect of furin inhibitors on PEA-induced epithelial cell toxicity. (A) Cell toxicity (%) induced by 2 μg/ml PEA (24 h) was measured in the presence or absence of furin I or QUB-F1. Data represent mean ± s.e.m. *P<0.05. […]

recombinant human furin = biological target: T5, recombinant human furin (Homo sapiens, UniProt P09958); assay: Western blot with streptavidin-HRP of inhibitor-furin complex; type: binding; details: QUB-F1 100 μM, furin 0.4 μg, reducing and denaturing conditions
T5 construct: purchased R&D Systems
Experimental: Recombinant human furin (0.4 μg) was incubated with QUB-F1 (100 μM) for 45 minutes at 37°C. The sample was then denatured and reduced in Laemmli treatment buffer for 5 minutes at 95°C, resolved by SDS-PAGE, before transfer onto a nitrocellulose membrane which was blocked with a solution of Tris-buffered saline (TBS) containing 3% (w/v) bovine serum albumin and 0.1% (v/v) Tween-20. The membrane was subsequently probed with a streptavidin-Horseradish peroxidase conjugate (1:10,000) (Vector-Laboratories) in blocking solution for 1 h prior to detection by chemiluminescence (Luminata Forte Western HRP substrate (Millipore)).
Fig 1 Irreversible inhibition and visualization of recombinant human furin by QUB-F1. […] The inhibitor-proteases complex can be visualized using streptavidin-HRP, which detects the biotin reporter group on the compound.

T5 sequence (P09958 108-794): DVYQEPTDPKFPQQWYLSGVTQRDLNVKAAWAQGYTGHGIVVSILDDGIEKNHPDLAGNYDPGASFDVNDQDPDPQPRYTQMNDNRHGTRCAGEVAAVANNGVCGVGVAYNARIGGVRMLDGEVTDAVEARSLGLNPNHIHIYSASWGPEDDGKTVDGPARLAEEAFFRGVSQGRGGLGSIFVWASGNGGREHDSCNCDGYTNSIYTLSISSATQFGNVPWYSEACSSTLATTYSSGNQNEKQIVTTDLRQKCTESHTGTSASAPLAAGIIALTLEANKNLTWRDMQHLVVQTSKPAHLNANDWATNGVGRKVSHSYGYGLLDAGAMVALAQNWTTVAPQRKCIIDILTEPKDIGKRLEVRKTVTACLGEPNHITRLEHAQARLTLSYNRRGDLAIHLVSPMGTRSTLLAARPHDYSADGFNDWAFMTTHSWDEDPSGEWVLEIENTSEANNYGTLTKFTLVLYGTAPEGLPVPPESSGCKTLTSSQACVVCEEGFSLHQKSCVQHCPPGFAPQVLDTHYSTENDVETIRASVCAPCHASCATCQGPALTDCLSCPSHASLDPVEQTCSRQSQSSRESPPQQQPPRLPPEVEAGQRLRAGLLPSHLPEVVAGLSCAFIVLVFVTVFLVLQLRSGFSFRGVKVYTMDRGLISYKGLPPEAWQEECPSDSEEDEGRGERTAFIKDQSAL
T1 sequence (Q16651 33-343): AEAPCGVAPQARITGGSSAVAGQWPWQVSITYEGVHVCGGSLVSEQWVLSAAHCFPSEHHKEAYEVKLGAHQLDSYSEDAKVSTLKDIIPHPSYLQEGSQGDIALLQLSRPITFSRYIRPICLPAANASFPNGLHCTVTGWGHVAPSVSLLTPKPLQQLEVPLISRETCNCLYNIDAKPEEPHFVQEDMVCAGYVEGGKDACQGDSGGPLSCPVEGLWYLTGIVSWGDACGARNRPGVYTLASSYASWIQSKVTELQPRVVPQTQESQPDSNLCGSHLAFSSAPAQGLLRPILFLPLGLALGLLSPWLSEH
T2 sequence (P00742 235-488 limits assumed): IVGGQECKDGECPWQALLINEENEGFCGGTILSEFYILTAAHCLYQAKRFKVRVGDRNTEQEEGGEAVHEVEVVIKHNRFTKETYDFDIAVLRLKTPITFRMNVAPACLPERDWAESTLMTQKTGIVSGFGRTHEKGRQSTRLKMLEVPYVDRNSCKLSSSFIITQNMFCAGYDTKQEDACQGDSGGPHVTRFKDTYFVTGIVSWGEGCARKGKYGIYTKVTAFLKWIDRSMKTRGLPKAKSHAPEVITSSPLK
T2 sequence (P00742 41-179 partner limits assumed): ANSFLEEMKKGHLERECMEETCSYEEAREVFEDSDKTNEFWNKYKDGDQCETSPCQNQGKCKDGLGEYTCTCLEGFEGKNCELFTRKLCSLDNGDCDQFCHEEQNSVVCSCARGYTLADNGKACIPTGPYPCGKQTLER

CCCCCCCCCCCCCCCC(=O)N[C@@H](CCCCNC(=O)CCCCCNC(=O)CCCC[C@@H]1SC[C@@H]2NC(=O)N[C@@H]21)C(=O)N[C@@H](CCCNC(=N)N)C(=O)N[C@H](C(=O)N[C@@H](CCCCN)C(=O)NC(CCCNC(=N)N)P(=O)(Oc1ccccc1)Oc1ccccc1)C(C)C (stereo partly drawn) [QUB-F1, N^α-Pal-N^ω-(Biotinyl-Ahx)-Lys-RVKR^P(OPh)2] (Palmitoyl-K([Ahx-Biotin])RVK-X1)
inhibition of trypsin (trypsin): did not | inhibition of prostasin (prostasin): did not | inhibition of factor Xa (factor Xa): did not | inhibition of neutrophil elastase (neutrophil elastase): Neither compound was found to inhibit | inhibition of proteinase 3 (proteinase 3): Neither compound was found to inhibit | inhibition of cell surface furin-like activity [1]: inhibited cell surface furin-like activity to the same extent as furin I | irreversible binding to furin (visualized by streptavidin-HRP) (recombinant human furin): irreversibly bound
